Literature values, collected in patent publication US20120076863A1, “NANOPARTICULATE STABILIZED ANTI-HYPERTENSIVE COMPOSITIONS” (Elan Pharma International Ltd., priority 2005, published 2012).
Counter-ions that a name gives are not always drawn.

Legend:
[1] = active metabolite of temocapril

Row | solubility in water | excretion route [1] | SMILES
1 | only slightly soluble |  | CCOC(=O)[C@H](CCc1ccccc1)N[C@H]1CS[C@H](c2cccs2)CN(CC(=O)O)C1=O [Temocapril hydrochloride, α-{(2S,6R)-6-[(1S)-1-ethoxy-carbonyl-3-phenyl-propyl]amino-5-oxo-2-(2-thienyl)perhydro-1,4-thiazepin-4yl}acetic acid hydrochloride]
2 |  | excreted predominantly in bile | O=C(O)CN1C[C@@H](c2cccs2)SC[C@H](N[C@@H](CCc2ccccc2)C(=O)O)C1=O [temocaprilat]
